In patent US20260027116A1, “Methods of Treating Chronic Graft-Versus-Host Disease Following Allogeneic Hematopoietic Stem Cell Transplantation” (Kadmon Corporation, LLC, priority 2022, published 2026):

Test system: lung function
Experiment: Example 1: percent predicted FVC change from baseline
Format: in vivo, human
Conditions: mean (SD)
Experimental: Change From Baseline in Percent Predicted Forced Vital Capacity (FVC) at Each Specified Time Points. FVC was the total amount of air (in liters) exhaled from the lungs during the lung function test measured by spirometer which assessed the change in lung function related to the disease status. Baseline value was defined as valid and last non-missing value obtained within 28 days prior to participant receiving first study medication. EOT visit was performed within 3 days after the participant's last dose of study drug. […] Analysis was performed on mITT population. Here, ‘number analyzed’=participants with available data for each specified category. Here, ‘0’ in the number analyzed field signifies that none of the participants were available for the analysis at the specified time points.

CC(C)NC(=O)COc1cccc(-c2nc(Nc3ccc4[nH]ncc4c3)c3ccccc3n2)c1 [Belumosudil, 2-{3-[4-(1H-indazol-5-ylamino)-2-quinazolinyl]phenoxy}-N-(propan-2-yl) acetamide]
Change From Baseline in Percent Predicted Forced Vital Capacity (FVC) (Cohort 1: 200 mg QD, Cycle 3, Day 1): 0.5 (3.8) percent predicted FVC | Change From Baseline in Percent Predicted Forced Vital Capacity (FVC) (Cohort 1: 200 mg QD, Cycle 5, Day 1): −0.5 (7.1) percent predicted FVC | Change From Baseline in Percent Predicted Forced Vital Capacity (FVC) (Cohort 1: 200 mg QD, Cycle 7, Day 1): −2.9 (5.2) percent predicted FVC | Change From Baseline in Percent Predicted Forced Vital Capacity (FVC) (Cohort 1: 200 mg QD, Cycle 9, Day 1): 0.4 (5.1) percent predicted FVC | Change From Baseline in Percent Predicted Forced Vital Capacity (FVC) (Cohort 1: 200 mg QD, Cycle 11, Day 1): −1.1 (7.3) percent predicted FVC | Change From Baseline in Percent Predicted Forced Vital Capacity (FVC) (Cohort 1: 200 mg QD, Cycle 12, Day 1): 2.0 (—) percent predicted FVC | Change From Baseline in Percent Predicted Forced Vital Capacity (FVC) (Cohort 1: 200 mg QD, Cycle 13, Day 1): −2.4 (7.9) percent predicted FVC | Change From Baseline in Percent Predicted Forced Vital Capacity (FVC) (Cohort 1: 200 mg QD, Cycle 14, Day 1): 11.0 (—) percent predicted FVC | Change From Baseline in Percent Predicted Forced Vital Capacity (FVC) (Cohort 1: 200 mg QD, Cycle 15, Day 1): −3.7 (10.4) percent predicted FVC | Change From Baseline in Percent Predicted Forced Vital Capacity (FVC) (Cohort 1: 200 mg QD, Cycle 16, Day 1): 16.0 (—) percent predicted FVC | Change From Baseline in Percent Predicted Forced Vital Capacity (FVC) (Cohort 1: 200 mg QD, Cycle 17, Day 1): −3.2 (6.3) percent predicted FVC | Change From Baseline in Percent Predicted Forced Vital Capacity (FVC) (Cohort 1: 200 mg QD, Cycle 19, Day 1): −2.3 (6.8) percent predicted FVC | Change From Baseline in Percent Predicted Forced Vital Capacity (FVC) (Cohort 1: 200 mg QD, Cycle 21, Day 1): −3.2 (8.1) percent predicted FVC | Change From Baseline in Percent Predicted Forced Vital Capacity (FVC) (Cohort 1: 200 mg QD, Cycle 23, Day 1): 0.0 (12.3) percent predicted FVC | Change From Baseline in Percent Predicted Forced Vital Capacity (FVC) (Cohort 1: 200 mg QD, Cycle 24, Day 1): 4.0 (—) percent predicted FVC | Change From Baseline in Percent Predicted Forced Vital Capacity (FVC) (Cohort 1: 200 mg QD, Cycle 25, Day 1): −7.0 (11.3) percent predicted FVC | Change From Baseline in Percent Predicted Forced Vital Capacity (FVC) (Cohort 1: 200 mg QD, Cycle 26, Day 1): 4.0 (—) percent predicted FVC | Change From Baseline in Percent Predicted Forced Vital Capacity (FVC) (Cohort 1: 200 mg QD, Cycle 27, Day 1): −2.0 (4.2) percent predicted FVC | Change From Baseline in Percent Predicted Forced Vital Capacity (FVC) (Cohort 1: 200 mg QD, Cycle 29, Day 1): 2.5 (4.9) percent predicted FVC | Change From Baseline in Percent Predicted Forced Vital Capacity (FVC) (Cohort 1: 200 mg QD, Cycle 30, Day 1): 4.0 (—) percent predicted FVC | Change From Baseline in Percent Predicted Forced Vital Capacity (FVC) (Cohort 1: 200 mg QD, Cycle 31, Day 1): 1.5 (3.5) percent predicted FVC | Change From Baseline in Percent Predicted Forced Vital Capacity (FVC) (Cohort 1: 200 mg QD, Cycle 32, Day 1): 2.0 (—) percent predicted FVC | Change From Baseline in Percent Predicted Forced Vital Capacity (FVC) (Cohort 1: 200 mg QD, Cycle 33, Day 1): 11.0 (0.0) percent predicted FVC | Change From Baseline in Percent Predicted Forced Vital Capacity (FVC) (Cohort 1: 200 mg QD, Cycle 34, Day 1): 6.0 (—) percent predicted FVC | Change From Baseline in Percent Predicted Forced Vital Capacity (FVC) (Cohort 1: 200 mg QD, Cycle 35, Day 1): 11.0 (5.7) percent predicted FVC | Change From Baseline in Percent Predicted Forced Vital Capacity (FVC) (Cohort 1: 200 mg QD, Cycle 36, Day 1): 5.0 (—) percent predicted FVC | Change From Baseline in Percent Predicted Forced Vital Capacity (FVC) (Cohort 1: 200 mg QD, Cycle 48, Day 1): 5.0 (—) percent predicted FVC | Change From Baseline in Percent Predicted Forced Vital Capacity (FVC) (Cohort 1: 200 mg QD, Cycle 49, Day 1): 6.0 (—) percent predicted FVC | Change From Baseline in Percent Predicted Forced Vital Capacity (FVC) (Cohort 1: 200 mg QD, Cycle 51, Day 1): 9.0 (—) percent predicted FVC | Change From Baseline in Percent Predicted Forced Vital Capacity (FVC) (Cohort 1: 200 mg QD, Cycle 52, Day 1): 3.0 (—) percent predicted FVC | Change From Baseline in Percent Predicted Forced Vital Capacity (FVC) (Cohort 1: 200 mg QD, Cycle 53, Day 1): 8.0 (—) percent predicted FVC | Change From Baseline in Percent Predicted Forced Vital Capacity (FVC) (Cohort 1: 200 mg QD, Cycle 54, Day 1): 5.0 (—) percent predicted FVC | Change From Baseline in Percent Predicted Forced Vital Capacity (FVC) (Cohort 1: 200 mg QD, Cycle 55, Day 1): 13.0 (—) percent predicted FVC | Change From Baseline in Percent Predicted Forced Vital Capacity (FVC) (Cohort 1: 200 mg QD, Cycle 56, Day 1): 7.0 (—) percent predicted FVC | Change From Baseline in Percent Predicted Forced Vital Capacity (FVC) (Cohort 1: 200 mg QD, Cycle 57, Day 1): 14.0 (—) percent predicted FVC | Change From Baseline in Percent Predicted Forced Vital Capacity (FVC) (Cohort 1: 200 mg QD, Cycle 58, Day 1): 7.0 (—) percent predicted FVC | Change From Baseline in Percent Predicted Forced Vital Capacity (FVC) (Cohort 1: 200 mg QD, Cycle 60, Day 1): 8.0 (—) percent predicted FVC | Change From Baseline in Percent Predicted Forced Vital Capacity (FVC) (Cohort 1: 200 mg QD, Cycle 61, Day 1): 12.0 (—) percent predicted FVC | Change From Baseline in Percent Predicted Forced Vital Capacity (FVC) (Cohort 1: 200 mg QD, Cycle 62, Day 1): 5.0 (—) percent predicted FVC | Change From Baseline in Percent Predicted Forced Vital Capacity (FVC) (Cohort 1: 200 mg QD, Cycle 63, Day 1): 12.0 (—) percent predicted FVC | Change From Baseline in Percent Predicted Forced Vital Capacity (FVC) (Cohort 1: 200 mg QD, Cycle 67, Day 1): 14.0 (—) percent predicted FVC | Change From Baseline in Percent Predicted Forced Vital Capacity (FVC) (Cohort 1: 200 mg QD, EOT): −2.5 (10.3) percent predicted FVC | Change From Baseline in Percent Predicted Forced Vital Capacity (FVC) (Cohort 2: 200 mg BID, Cycle 3, Day 1): −2.4 (6.0) percent predicted FVC | Change From Baseline in Percent Predicted Forced Vital Capacity (FVC) (Cohort 2: 200 mg BID, Cycle 5, Day 1): −4.3 (5.2) percent predicted FVC | Change From Baseline in Percent Predicted Forced Vital Capacity (FVC) (Cohort 2: 200 mg BID, Cycle 7, Day 1): −1.3 (6.4) percent predicted FVC | Change From Baseline in Percent Predicted Forced Vital Capacity (FVC) (Cohort 2: 200 mg BID, Cycle 8, Day 1): 2.0 (—) percent predicted FVC | Change From Baseline in Percent Predicted Forced Vital Capacity (FVC) (Cohort 2: 200 mg BID, Cycle 9, Day 1): −2.9 (5.5) percent predicted FVC | Change From Baseline in Percent Predicted Forced Vital Capacity (FVC) (Cohort 2: 200 mg BID, Cycle 10, Day 1): −5.0 (8.5) percent predicted FVC | Change From Baseline in Percent Predicted Forced Vital Capacity (FVC) (Cohort 2: 200 mg BID, Cycle 11, Day 1): −2.7 (5.6) percent predicted FVC | Change From Baseline in Percent Predicted Forced Vital Capacity (FVC) (Cohort 2: 200 mg BID, Cycle 12, Day 1): 1.0 (—) percent predicted FVC | Change From Baseline in Percent Predicted Forced Vital Capacity (FVC) (Cohort 2: 200 mg BID, Cycle 13, Day 1): −3.3 (15.4) percent predicted FVC
